For one assay, the target named is T1, SCD5 (Homo sapiens, UniProt Q86SK9).
T1 construct: host or cells: Saccharomyces cerevisiae ole1Δ strain (W303 pdr1Δ pdr3Δ background), plasmid pRS316, TDH3 promoter
T1 sequence (Q86SK9 1-330): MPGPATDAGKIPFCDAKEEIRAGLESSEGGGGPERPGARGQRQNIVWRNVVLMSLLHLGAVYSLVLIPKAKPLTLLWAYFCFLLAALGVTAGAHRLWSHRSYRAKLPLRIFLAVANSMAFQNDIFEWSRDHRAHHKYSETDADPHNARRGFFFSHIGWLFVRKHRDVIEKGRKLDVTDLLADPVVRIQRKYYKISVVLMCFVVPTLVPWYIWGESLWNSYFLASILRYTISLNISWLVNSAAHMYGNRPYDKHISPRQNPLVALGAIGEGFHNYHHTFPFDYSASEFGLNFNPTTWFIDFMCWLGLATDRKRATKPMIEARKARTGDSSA
Briefly: Growth inhibition of yeast (ole1Δ) expressing human SCD5 as the sole desaturase. It is filed as cell-based.

Another assay has as its target T2, SCD1 (Homo sapiens, UniProt O00767).
T2 construct: host or cells: Saccharomyces cerevisiae ole1Δ strain (W303 pdr1Δ pdr3Δ background), plasmid pRS316, TDH3 promoter
T2 sequence (O00767 1-359): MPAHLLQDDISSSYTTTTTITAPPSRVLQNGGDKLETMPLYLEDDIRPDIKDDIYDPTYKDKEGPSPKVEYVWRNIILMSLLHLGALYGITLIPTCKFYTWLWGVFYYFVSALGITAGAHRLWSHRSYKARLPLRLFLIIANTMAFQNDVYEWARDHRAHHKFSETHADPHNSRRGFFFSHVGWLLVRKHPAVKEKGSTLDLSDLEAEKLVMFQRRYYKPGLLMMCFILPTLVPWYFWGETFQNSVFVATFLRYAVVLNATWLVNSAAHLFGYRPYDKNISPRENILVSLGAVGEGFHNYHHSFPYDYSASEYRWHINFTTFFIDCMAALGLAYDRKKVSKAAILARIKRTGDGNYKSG
As to the kind of experiment: Growth inhibition of yeast (ole1Δ) expressing human SCD1 as the sole desaturase. It is filed as cell-based.

The mark [1] stands for this setting: yeast strain with SCD5 plasmid, OD600 growth read at 40 h, read-out: SCD5 IC50.
The mark [2] stands for this setting: yeast strain with SCD1 plasmid, OD600 growth read at 40 h, read-out: SCD1 IC50.

Where two headings read alike, the source gives them in different places.

Experimental findings from US20250034125A1, “COMPOUNDS AND USES THEREOF” (JANSSEN PHARMACEUTICA NV, priority 2019, published 2025) are described below.

What is called IC50 is the concentration that gives 50% inhibition. For `O=c1ccc(-c2noc(N3CCC(Cc4ccc(F)c(F)c4)CC3)n2)c[nH]1` [Compound 1], the IC50 came out at 3.8 µM on SCD5 (setting [1]) and 14 µM on SCD1 (setting [2]).

Turning to `O=c1ccc(-c2noc(N3CCC(Cc4cc(F)cc(F)c4)CC3)n2)c[nH]1` [Compound 2], the 50% inhibitory concentration (IC50) on SCD5 (setting [1]) and at SCD1 (setting [2]) was > 45 µM each time.

`Cn1cc(NC(=O)N2CCC(Cc3cc(F)cc(F)c3)C2)ccc1=O` (centres unmarked) [Compound 3, 3-(3,5-difluorobenzyl)-N-(1-methyl-6-oxo-1,6-dihydropyridin-3-yl)pyrrolidine-1-carboxamide]: the figures for the half-maximal inhibitory concentration (IC50) on SCD5 (setting [1]) and on SCD1 (setting [2]) were 20.7 µM and 11.3 µM, respectively.

As to `Cn1cc(CC(=O)N2CCC(Cc3cccc(Cl)c3)CC2)ccc1=O` [Compound 4, 5-(2-(4-(3-chlorobenzyl)piperidin-1-yl)-2-oxoethyl)-1-methylpyridin-2(1H)-one], the IC50 is 24.7 µM at SCD5 (setting [1]) and > 45 µM at SCD1 (setting [2]).

Regarding `Cn1cc(CC(=O)N2CCC(Oc3cccc(Cl)c3)CC2)ccc1=O` [Compound 5, 5-(2-(4-(3-chlorophenoxy)piperidin-1-yl)-2-oxoethyl)-1-methylpyridin-2(1H)-one], the half-maximal inhibitory concentration (IC50) at SCD5 (setting [1]) and on SCD1 (setting [2]) was > 45 µM in each case.

For the compound `Cn1cc(NC(=O)N2CCC(Cc3ccc(F)c(F)c3)CC2)ccc1=O` [Compound 7], the concentration for half-maximal inhibition (IC50) on SCD5 (setting [1]) is 5.01 µM; on SCD1 (setting [2]), > 45 µM.

With `Cn1cc(NC(=O)N2CCC(Cc3cc(F)cc(Cl)c3)CC2)ccc1=O` [Compound 8, 4-(3-chloro-5-fluorobenzyl)-N-(1-methyl-6-oxo-1,6-dihydropyridin-3-yl)piperidine-1-carboxamide], the IC50 amounted to 0.83 µM at SCD5 (setting [1]) and 2.32 µM at SCD1 (setting [2]).

Consider `Cn1cc(NC(=O)N2CCC(Cc3cc(F)ccc3F)CC2)ccc1=O` [Compound 10], for which the half-inhibitory concentration (IC50) on SCD5 (setting [1]) and at SCD1 (setting [2]) was > 45 µM throughout.

Turning to `Cn1cc(NC(=O)N2CCC(Nc3cc(F)cc(F)c3)CC2)ccc1=O` [Compound 11, 4-(3,5-difluorophenylamino)-N-(1-methyl-6-oxo-1,6-dihydropyridin-3-yl)piperidine-1-carboxamide], the IC50 against SCD5 and against SCD1 was > 45 µM throughout.

Consider `Cn1cc(-c2nc(N3CCC(Oc4cc(F)cc(F)c4)CC3)no2)ccc1=O` [Compound 15, 5-(3-(4-(3,5-difluorophenoxy)piperidin-1-yl)-1,2,4-oxadiazol-5-yl)-1-methylpyridin-2(1H)-one], for which the half-maximal inhibitory concentration (IC50) at SCD5 (setting [1]) was 0.86 µM; at SCD1 (setting [2]), 12.4 µM.

In the case of `Cn1cc(-c2nc(N3CCC(Oc4cccc(F)c4Cl)CC3)no2)ccc1=O` [Compound 16, 5-(3-(4-(2-chloro-3-fluorophenoxy)piperidin-1-yl)-1,2,4-oxadiazol-5-yl)-1-methylpyridin-2(1H)-one], the values for the IC50 on SCD5 (setting [1]) and on SCD1 (setting [2]) were 0.59 µM and 0.35 µM, respectively.

As for `Cn1cc(-c2nc(N3CCC(Cc4cc(F)cc(F)c4)CC3)no2)ccc1=O` [Compound 17, 5-(3-(4-(3,5-difluorobenzyl)piperidin-1-yl)-1,2,4-oxadiazol-5-yl)-1-methylpyridin-2(1H)-one], the IC50 was 0.01 µM on SCD5 (setting [1]) and 0.72 µM on SCD1 (setting [2]).

As to `Cn1cc(-c2nnc(N3CCC(Cc4cccc(F)c4)CC3)o2)ccc1=O` [Compound 18, 5-(5-(4-(3-fluorobenzyl)piperidin-1-yl)-1,3,4-oxadiazol-2-yl)-1-methylpyridin-2(1H)-one], the IC50 on SCD5 (setting [1]) was 1.93 µM; at SCD1 (setting [2]) it was > 45 µM.

As to `Cn1cc(-c2nnc(N3CCC(Cc4cc(F)cc(F)c4)CC3)o2)ccc1=O` [Compound 19, 5-(5-(4-(3,5-difluorobenzyl)piperidin-1-yl)-1,3,4-oxadiazol-2-yl)-1-methylpyridin-2(1H)-one], the IC50 is 1 µM on SCD5 (setting [1]) and 9.72 µM on SCD1 (setting [2]).

With `Cn1cc(-c2noc(N3CCC(Cc4ccc(F)c(F)c4)CC3)n2)ccc1=O` [Compound 20, 5-(5-(4-(3,4-difluorobenzyl)piperidin-1-yl)-1,2,4-oxadiazol-3-yl)-1-methylpyridin-2(1H)-one], the IC50 on SCD5 (setting [1]) came to 1.4 µM; on SCD1 (setting [2]) it was 2.7 µM.

As to `Cn1cc(-c2noc(N3CCC(Cc4cc(F)cc(F)c4)CC3)n2)ccc1=O` [Compound 21, 5-(5-(4-(3,5-difluorobenzyl)piperidin-1-yl)-1,2,4-oxadiazol-3-yl)-1-methylpyridin-2(1H)-one], the IC50 at SCD5 (setting [1]) turned out to be 3 µM; at SCD1 (setting [2]) it was 10 µM.

As for `Cn1nc(NC(=O)N2CC(Cc3cccc(Cl)c3)C2)ccc1=O` [Compound 22, 3-(3-chlorobenzyl)-N-(1-methyl-6-oxo-1,6-dihydropyridazin-3-yl)azetidine-1-carboxamide], the half-maximal inhibitory concentration (IC50) at SCD5 (setting [1]) was determined as 0.95 µM; at SCD1 (setting [2]), 2.59 µM.

In the case of `Cn1nc(NC(=O)N2CC(Oc3ccc(F)c(F)c3)C2)ccc1=O` [Compound 23, 3-(3,4-difluorophenoxy)-N-(1-methyl-6-oxo-1,6-dihydropyridazin-3-yl)azetidine-1-carboxamide], the IC50 on SCD5 (setting [1]) stood at 1.8 µM; on SCD1 (setting [2]), 1.3 µM.

For `Cn1nc(NC(=O)N2CC(Oc3cc(F)cc(F)c3)C2)ccc1=O` [Compound 24, 3-(3,5-difluorophenoxy)-N-(1-methyl-6-oxo-1,6-dihydropyridazin-3-yl)azetidine-1-carboxamide], the IC50 on SCD5 (setting [1]) stood at 2.9 µM; at SCD1 (setting [2]), 1.1 µM.

As for `Cn1nc(NC(=O)N2CCC(Cc3cccc(Cl)c3)C2)ccc1=O` (centres unmarked) [Compound 25, 3-(3-chlorobenzyl)-N-(1-methyl-6-oxo-1,6-dihydropyridazin-3-yl)pyrrolidine-1-carboxamide], the 50% inhibitory concentration (IC50) at SCD5 (setting [1]) was 5.29 µM; on SCD1 (setting [2]), 2.75 µM.

On to `Cn1nc(NC(=O)N2CCC(Cc3cc(F)cc(F)c3)C2)ccc1=O` (centres unmarked) [Compound 26, 3-(3,5-difluorobenzyl)-N-(1-methyl-6-oxo-1,6-dihydropyridazin-3-yl)pyrrolidine-1-carboxamide], for which the IC50 on SCD5 (setting [1]) worked out at 5.68 µM; on SCD1 (setting [2]), 4.15 µM.

As to `Cn1nc(NC(=O)N2CC[C@@H](Oc3ccc(F)c(F)c3)C2)ccc1=O` [Compound 27, (3R)-3-(3,4-difluorophenoxy)-N-(1-methyl-6-oxo-1,6-dihydropyridazin-3-yl)pyrrolidine-1-carboxamide], the 50% inhibitory concentration (IC50) at SCD5 (setting [1]) is > 45 µM; on SCD1 (setting [2]), 17 µM.

On to `Cn1nc(NC(=O)N2CC[C@@H](Oc3cc(F)cc(F)c3)C2)ccc1=O` [Compound 28, (3R)-3-(3,5-difluorophenoxy)-N-(1-methyl-6-oxo-1,6-dihydropyridazin-3-yl)pyrrolidine-1-carboxamide], for which the half-maximal inhibitory concentration (IC50) was > 45 µM at SCD5 (setting [1]) and 8.1 µM on SCD1 (setting [2]).

In the case of `Cn1nc(NC(=O)N2CC[C@H](Oc3ccc(F)c(F)c3)C2)ccc1=O` [Compound 29, (3S)-3-(3,4-difluorophenoxy)-N-(1-methyl-6-oxo-1,6-dihydropyridazin-3-yl)pyrrolidine-1-carboxamide], the figures for the IC50 on SCD5 (setting [1]) and at SCD1 (setting [2]) were 2.8 µM and 0.42 µM, respectively.

For the compound `Cn1nc(NC(=O)N2CC[C@H](Oc3cc(F)cc(F)c3)C2)ccc1=O` [Compound 30, (3S)-3-(3,5-difluorophenoxy)-N-(1-methyl-6-oxo-1,6-dihydropyridazin-3-yl)pyrrolidine-1-carboxamide], the IC50 is 2.9 µM on SCD5 (setting [1]) and 0.33 µM on SCD1 (setting [2]).

Regarding `Cn1nc(NC(=O)N2CCC[C@@H](c3ccc(Cl)cc3)CC2)ccc1=O` [Compound 31], the 50% inhibitory concentration (IC50) on SCD5 (setting [1]) is > 45 µM; on SCD1 (setting [2]) it was 39 µM.

As to `Cn1nc(NC(=O)N2CCC[C@@H](c3cc(F)cc(F)c3)CC2)ccc1=O` [Compound 32], the results for the half-maximal inhibitory concentration (IC50) on SCD5 (setting [1]) and on SCD1 (setting [2]) were 21 µM and 7.2 µM, respectively.

As to `Cn1nc(NC(=O)N2CCC(=Cc3cc(F)cc(F)c3)CC2)ccc1=O` [Compound 33, 4-(3,5-difluorobenzylidene)-N-(1-methyl-6-oxo-1,6-dihydropyridazin-3-yl)piperidine-1-carboxamide], the IC50 on SCD5 (setting [1]) stood at 0.14 µM; at SCD1 (setting [2]), 0.44 µM.

With `O=C(Cc1ccc(=O)[nH]n1)N1CCC(Cc2cccc(Cl)c2)CC1` [Compound 34], the IC50 at SCD5 (setting [1]) is 8.2 µM; on SCD1 (setting [2]), > 45 µM.

On to `O=C(Cc1ccc(=O)[nH]n1)N1CCC(Cc2cc(F)cc(F)c2)CC1` [Compound 35], for which the values for the half-maximal inhibitory concentration (IC50) at SCD5 (setting [1]) and at SCD1 (setting [2]) were 20.4 µM and > 45 µM, respectively.

With `O=C(Cc1ccc(=O)[nH]n1)N1CCC(Oc2cccc(Cl)c2)CC1` [Compound 36, 6-(2-(4-(3-chlorophenoxy)piperidin-1-yl)-2-oxoethyl)pyridazin-3(2H)-one], the half-maximal inhibitory concentration (IC50) on SCD5 (setting [1]) turned out to be 5.35 µM; on SCD1 (setting [2]), 25.5 µM.

In the case of `Cn1nc(CC(=O)N2CCC(Cc3cccc(Cl)c3)CC2)ccc1=O` [Compound 37, 6-(2-(4-(3-chlorobenzyl)piperidin-1-yl)-2-oxoethyl)-2-methylpyridazin-3(2H)-one], the IC50 is 4.36 µM on SCD5 (setting [1]) and 12.7 µM on SCD1 (setting [2]).

As to `Cn1nc(-c2nc(N3CCC(Cc4cccc(F)c4)CC3)no2)ccc1=O` [Compound 114, 6-(3-(4-(3-fluorobenzyl)piperidin-1-yl)-1,2,4-oxadiazol-5-yl)-2-methylpyridazin-3(2H)-one], at SCD5 (setting [1]), the IC50 came to 0.01 µM.
